Data published in patent publication US11413278B2, “Compounds and methods for promoting stress resistance” (priority 2015, dated 2022).
Read-outs that look alike come from different tables or passages of the source.

Legend:
human PARP1 = biological target: T1, human PARP1 (Homo sapiens, UniProt P09874); experiment: PARP inhibitor assay (HT Fluorescent Homogeneous PARP Inhibition Assay Kit); format: biochemical; details: score
T1 construct: purchased Trevigen
Protocol: (§1) The assay was performed with the HT Fluorescent Homogeneous PARP Inhibition Assay Kit (Trevigen), following manufacturer's instructions. Briefly, nicotinamide adenine dinucleotide, human PARP1 and activated-DNA solution was added onto a 96-well plate. 54 repurchased small molecules, at 10 μM final concentration, were introduced onto the 96-well assay plate and incubated in a humid chamber at room temperature for 30 min in dark. Cycling mixture, with resazurin and cycling enzyme diaphorase, was then added and incubated further for 1 hr in dark. Reaction was terminated by adding the stopping buffer.
as §1, with “(Trevegen),” for “(Trevigen),”, “stopped” for “terminated”

FOXO3 = experiment: qPCR analysis of FOXO3-regulated genes; format: cell-based, human; details: for fold induction at 10 µM: Homo sapiens
Summary of the method: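 FOXO3 target-gene expression quantified by qPCR normalised to B2M, PPIA and GAPDH, in WI-38 cells after 24 h exposure to 10 μM compound. Some runs used cells first transfected 36 h with 10 nM FOXO3 or NRF2 siRNA and replated ~24 h before dosing.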

NRF2 = experiment: qPCR analysis of NRF2-regulated genes; format: cell-based, human; details: for fold induction at 10 µM: Homo sapiens
Summary of the method: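 Expression of HMOX1, NQO1, GCLC and GSTM1 measured by qPCR relative to B2M, PPIA and GAPDH. Cells were WI-38 fibroblasts exposed 24 hrs to 10 μM compound, with RNA and cDNA prepared via Cells-to-Ct. Where stated, cells were first transfected 36 hrs with FOXO3 or NRF2 siRNA at 10 nM.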

C. elegans = C. elegans lifespan assays (liquid and plate); format: in vivo, Caenorhabditis elegans; details: for ILS at 60 µM / ILS at 66 µM: Caenorhabditis elegans

T1 sequence (P09874 whole entry): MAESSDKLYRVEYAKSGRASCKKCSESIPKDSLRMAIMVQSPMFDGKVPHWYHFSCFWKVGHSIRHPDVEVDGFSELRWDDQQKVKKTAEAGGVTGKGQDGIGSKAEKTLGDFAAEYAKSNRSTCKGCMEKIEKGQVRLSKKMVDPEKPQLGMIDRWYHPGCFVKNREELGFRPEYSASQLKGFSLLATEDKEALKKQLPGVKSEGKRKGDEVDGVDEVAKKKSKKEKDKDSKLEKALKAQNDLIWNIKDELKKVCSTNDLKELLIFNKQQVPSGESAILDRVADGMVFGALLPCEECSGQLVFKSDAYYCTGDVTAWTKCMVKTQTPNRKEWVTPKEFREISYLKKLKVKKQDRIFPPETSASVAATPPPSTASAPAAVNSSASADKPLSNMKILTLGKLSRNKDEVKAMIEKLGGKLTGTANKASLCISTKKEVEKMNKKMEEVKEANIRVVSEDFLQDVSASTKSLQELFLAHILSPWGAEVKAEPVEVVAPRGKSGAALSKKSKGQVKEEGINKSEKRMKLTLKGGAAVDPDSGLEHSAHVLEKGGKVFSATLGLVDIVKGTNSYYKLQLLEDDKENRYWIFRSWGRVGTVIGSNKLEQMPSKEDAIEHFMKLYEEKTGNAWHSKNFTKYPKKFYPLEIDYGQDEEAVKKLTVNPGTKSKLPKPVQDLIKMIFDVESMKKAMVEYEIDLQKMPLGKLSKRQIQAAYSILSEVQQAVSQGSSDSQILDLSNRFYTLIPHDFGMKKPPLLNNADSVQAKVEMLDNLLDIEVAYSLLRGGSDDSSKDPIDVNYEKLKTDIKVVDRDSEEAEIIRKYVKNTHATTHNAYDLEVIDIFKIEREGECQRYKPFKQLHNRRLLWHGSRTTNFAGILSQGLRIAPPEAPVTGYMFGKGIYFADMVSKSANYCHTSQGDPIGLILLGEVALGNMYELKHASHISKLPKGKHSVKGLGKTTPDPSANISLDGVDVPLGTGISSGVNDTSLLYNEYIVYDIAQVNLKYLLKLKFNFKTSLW

O=C(NCc1cccnc1)/C(=C\c1cccc(Oc2ccccc2)c1)S(=O)(=O)c1ccccc1 [Gr-7A]
L = PARP inhibition (human PARP1): 0
SOD2 expression, normalized fold change (FOXO3-regulated gene) (FOXO3; 10 μM, 24 hrs, WI-38 cells, qPCR, normalized to B2M, n = 4): SOD2 1.78, fold
E = Potential FOXO3 Activation (FOXO3; 2-point score): 2
Potential FOXO3 Activation (>=2 target genes induced, by >=1.5-fold) (FOXO3; Assay 11(n)): YES
fold induction at 10 µM (FOXO3; 24 h, Assay 10(m), at 10 uM, qPCR, read-out: Induction of FOXO3-regulated genes: GADD45A normalized fold-change): 1.91
fold induction at 10 µM (FOXO3; 24 h, Assay 10(m), at 10 uM, qPCR, read-out: Induction of FOXO3-regulated genes: SOD2 normalized fold-change): 1.78
fold induction at 10 µM (FOXO3; 24 h, Assay 10(m), at 10 uM, qPCR, read-out: Induction of FOXO3-regulated genes: TXNIP normalized fold-change): 0.12
fold induction at 10 µM (FOXO3; 10 μM, 24 hrs, WI-38 cells, qPCR, normalized to B2M, n = 4, read-out: GADD45A expression, normalized fold change (FOXO3-regulated gene)): 1.91
fold induction at 10 µM (FOXO3; 10 μM, 24 hrs, WI-38 cells, qPCR, normalized to B2M, n = 4, read-out: TXNIP expression, normalized fold change (FOXO3-regulated gene)): 0.12
fold induction at 10 µM (FOXO3; WI-38 cells, 10 μM, 24 hrs, n=4, qPCR normalized by B2M, read-out: DDB1 Normalized fold change): 0.979
fold induction at 10 µM (FOXO3; WI-38 cells, 10 μM, 24 hrs, n=4, qPCR normalized by B2M, read-out: GADD45A Normalized fold change): 1.91
fold induction at 10 µM (FOXO3; WI-38 cells, 10 μM, 24 hrs, n=4, qPCR normalized by B2M, read-out: SESN1 Normalized fold change): 1.14
fold induction at 10 µM (FOXO3; fold change, qPCR, WI-38 cells, 10 μM, 24 hrs, read-out: Summary of effects on FOXO3-regulated genes: GADD45A): 1.91
fold induction at 10 µM (FOXO3; fold change, qPCR, WI-38 cells, 10 μM, 24 hrs, read-out: Summary of effects on FOXO3-regulated genes: TXNIP): 0.12
fold induction at 10 µM (FOXO3; qPCR, WI-38 cells, 10 μM, n=4, 24 hrs, normalized by B2M, read-out: CAT Normalized fold change): 1.15
fold induction at 10 µM (FOXO3; qPCR, WI-38 cells, 10 μM, n=4, 24 hrs, normalized by B2M, read-out: SOD2 Normalized fold change): 1.78
fold induction at 10 µM (FOXO3; qPCR, WI-38 cells, 10 μM, n=4, 24 hrs, normalized by B2M, read-out: TXNIP Normalized fold change): 0.12
Summary of effects on FOXO3-regulated genes: SOD2 (FOXO3; fold change, qPCR, WI-38 cells, 10 μM, 24 hrs): SOD2 1.78,
K = Sestrin induction (FOXO3; score): 0
E = Potential FOXO3 Activation (FOXO3; summary score): 2
F = Potential NRF2 Activation (NRF2; 2-point score): 0
fold induction at 10 µM (NRF2; 24 h, Assay 12(o), at 10 uM, qPCR, read-out: Induction of NRF2-regulated genes: GCLC normalized fold-change): 0.6
fold induction at 10 µM (NRF2; 24 h, Assay 12(o), at 10 uM, qPCR, read-out: Induction of NRF2-regulated genes: HMOX1 normalized fold-change): 15.2
fold induction at 10 µM (NRF2; 24 h, Assay 12(o), at 10 uM, qPCR, read-out: Induction of NRF2-regulated genes: NQO1 normalized fold-change): 0.78
fold induction at 10 µM (NRF2; rounded fold change, WI-38 cells, 10 μM, 24 hrs (RP11 for Gr-1D, RP29 for Gr-4D), read-out: Summary of effects on NRF2-regulated genes: HMOX1): 15.2
fold induction at 10 µM (NRF2; rounded fold change, WI-38 cells, 10 μM, 24 hrs (RP29 for Gr-4D), read-out: Summary of effects on NRF2-regulated genes: NQO1): 0.78
fold induction at 10 µM (NRF2; rounded fold change, WI-38 cells, 10 μM, 24 hrs, read-out: Summary of effects on NRF2-regulated genes: GCLC): 0.6
fold induction at 10 µM (NRF2; 10 μM, 24 hrs, WI-38 cells, qPCR, normalized to B2M, n = 4, read-out: GCLC expression, normalized fold change (NRF2-regulated gene)): 0.6
fold induction at 10 µM (NRF2; 10 μM, 24 hrs, WI-38 cells, qPCR, normalized to B2M, n = 4, read-out: HMOX1 expression, normalized fold change (NRF2-regulated gene)): 15.2
fold induction at 10 µM (NRF2; 10 μM, 24 hrs, WI-38 cells, qPCR, normalized to B2M, n = 4, read-out: NQO1 expression, normalized fold change (NRF2-regulated gene)): 0.78
fold induction at 10 µM (NRF2; WI-38 cells, 10 μM, 24 hrs, n=4, qPCR normalized by B2M, read-out: GCLC Normalized fold change): 0.602
fold induction at 10 µM (NRF2; WI-38 cells, 10 μM, 24 hrs, n=4, qPCR normalized by B2M, read-out: GSTM1 Normalized fold change): 1.09
fold induction at 10 µM (NRF2; WI-38 cells, 10 μM, 24 hrs, n=4, qPCR normalized by B2M, read-out: HMOX1 Normalized fold change): 15.2
fold induction at 10 µM (NRF2; WI-38 cells, 10 μM, 24 hrs, n=4, qPCR normalized by B2M, read-out: NQO1 Normalized fold change): 0.779
F = Potential NRF2 Activation (NRF2; summary score): 0
ILS at 60 µM (C. elegans; in liquid, wild type, with FuDR, 1.0 × 10^9 bacteria/ml, read-out: relative change of mean lifespan vs control, Trial 1): 40.6%
ILS at 60 µM (C. elegans; in liquid, wild type, with FuDR, 2.5 × 10^9 bacteria/ml, read-out: relative change of mean lifespan vs control, Trial 2): 16.2%
ILS at 60 µM (C. elegans; on plate, CF512 temperature-sensitive sterile animals, without FuDR, 1.0 × 10^11 bacteria/ml, read-out: relative change of mean lifespan vs control, Trial 4): 2.7%
ILS at 60 µM (C. elegans; on plate, CF512 temperature-sensitive sterile animals, without FuDR, 2.0 × 10^10 bacteria/ml, read-out: relative change of mean lifespan vs control, Trial 3): 13.9%
ILS at 66 µM (C. elegans; Assay 2(z), 1.0 × 10^9 bacteria/ml, wild type + FuDR (2012 July), read-out: Lifespan assay in liquid): 40.6%
ILS at 66 µM (C. elegans; Assay 3(aa), 2.5 × 10^9 bacteria/ml, wild type + FuDR, read-out: Lifespan assay in liquid): 16.2%
ILS at 66 µM (C. elegans; Assay 4(ab), 2.0 × 10^10 bacteria/ml, CF512 worms, no FuDR, read-out: Lifespan assay on plates): 13.9%
ILS at 66 µM (C. elegans; Assay 5(ac), 1.0 × 10^11 bacteria/ml, CF512 worms, no FuDR, read-out: Lifespan assay on plates): 2.7%
Extension of C. elegans' lifespan (qualitative) (C. elegans; in at least 3 to 4 trials, group range ~10% to ~50%): could extend animal's lifespan
O = Life span- extending scores in worms (C. elegans; score scale 0 to 2, 4 to 6 independent trials): 2 (2 for observed in more than 2 trials)
M = Lifespan-extending scores in worms (C. elegans; summary score): 2 (2 for observed in more than 2 trials)
